These are literature values, as cited in patent US20190233345A1, “AGRICULTURAL SYSTEMS, COMPOSITIONS AND METHODS FOR INCREASING CROP YIELD” (E. I. DU PONT DE NEMOURS AND COMPANY, priority 2016, published 2019).

Data set [1] concerns lepidopteran pests of corn (including Army Worm; Spodoptera frugiperda).
Data set [2] has as its system lepidopteran pests of soy (including Army Worm; Spodoptera frugiperda and Velvet Bean Caterpillar (Anticarsia gemmatalis)).

Regarding `CNC(=O)c1cc(C#N)cc(C)c1NC(=O)c1cc(Br)nn1-c1ncccc1Cl` [HGW, cyantraniliprole], the LD-50 in data set [1] and in data set [2] was 50-60 ppb throughout.
As to `CNC(=O)c1cc(Cl)cc(C)c1NC(=O)c1cc(Br)nn1-c1ncccc1Cl` [Prototype E2Y, chlorantraniliprole], the LD-50 in data set [1] and in data set [2] was 15-20 ppb in each case.
